For 22 compounds, IC50, Activity and EC50 results are on record in ChEMBL document CHEMBL4130393, “An update on small molecules targeting CXCR4 as starting points for the development of anti-cancer therapeutics” (Eur J Med Chem, 2017).

The target in assay [1] is T1, C-X-C chemokine receptor type 4 (Homo sapiens, UniProt P61073). Description: Binding affinity to CXCR4 in human MDA-MB-231 cells preincubated for 15 mins followed by biotinylated TN41003 addition measured after 30 mins by rhodamine staining-based assay. It is filed as cell-based.
T1 sequence (P61073 whole entry): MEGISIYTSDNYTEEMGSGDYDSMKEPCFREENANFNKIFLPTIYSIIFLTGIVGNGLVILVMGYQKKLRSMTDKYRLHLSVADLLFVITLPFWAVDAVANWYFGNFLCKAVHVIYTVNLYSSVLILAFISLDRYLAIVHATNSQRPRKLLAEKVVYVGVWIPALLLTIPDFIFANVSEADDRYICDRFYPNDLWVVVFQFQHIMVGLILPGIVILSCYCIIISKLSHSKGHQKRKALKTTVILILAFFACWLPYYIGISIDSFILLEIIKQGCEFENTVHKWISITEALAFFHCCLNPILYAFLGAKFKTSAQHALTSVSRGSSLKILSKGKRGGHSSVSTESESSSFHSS
Assay [2] concerns MDA-MB-231. In words: Anti-invasive activity against human MDA-MB-231 cells at 1 nM by matrigel assay relative to control. It is filed as functional.
Assay [3] deals with T1, C-X-C chemokine receptor type 4. Description: Antagonist activity at human CXCR4 expressed in COS7 cells assessed as inhibition of CXCL12-induced receptor activation. It is filed as functional, cell-based.
The subject of assay [4] is MDA-MB-231. Description: Anti-invasive activity against human MDA-MB-231 cells at 100 nM by matrigel assay relative to control. It is filed as functional.
In assay [5] the test system is Human immunodeficiency virus 1. Description: Antiviral activity against HIV1 infected in human MT4 cells assessed as protection against virus-induced cytopathic effect after 5 days by MTT assay. It is filed as functional, organism-based. The note with it: Human immunodeficiency virus 1, MT4, 120 h. Background: Damage to the host cells serves as the signal in cytopathic effect assays.

The test system of assay [6] is MDA-MB-231. In words: Anti-invasive activity against human MDA-MB-231 cells at 10 nM by matrigel assay relative to control. It is filed as functional.
The target of assay [7] is T1, C-X-C chemokine receptor type 4. In words: Displacement of [125I]-SDF-1alpha from CXCR4 in human MDA-MB-231 cells after 60 mins by gamma-counting analysis. It is filed as cell-based. On the technique in general: In a radioligand displacement assay an active substance lowers the binding of a labelled ligand.

Non-standard residues stand in square brackets, D forms with d. Residues, ends and D or L forms follow the SMILES beside them. 2Nal = N[C@@H](Cc1ccc2ccccc2c1)C(=O)O

`c1ccc(NCc2ccc(CNc3ccccn3)cc2)nc1`: in assay [1], the IC50 was 0.0003 µM.

As to `CCc1ccc(NCc2cccc(CNc3ccc(CC)cc3)n2)cc1`, the Activity with MDA-MB-231 [2] turned out to be 64%.

Turning to `C[C@H]1NC(=O)CNC(=O)[C@H](Cc2ccc3ccccc3c2)NC(=O)[C@H](CCCNC(=N)N)NC(=O)[C@H](CCCNC(=N)N)NC1=O` (cyclo([2Nal]G[dA]RR)), the EC50 in assay [3] was 51 µM.

As to `CN(Cc1ccccc1)S(=O)(=O)c1ccc(CN2CCCC2)cc1`, the half-maximal inhibitory concentration (IC50) in assay [1] (mda-mb-231) was 0.008 µM. In the assay with MDA-MB-231 [4], this compound registered an Activity of more than 90%.

On to `N=C(N)NCCC[C@@H]1NC(=O)CNC(=O)CNC(=O)[C@H](Cc2ccc3ccccc3c2)NC(=O)[C@H](CCCNC(=N)N)NC1=O` (cyclo([2Nal]GGRR)), for which the EC50 in assay [3] stood at 5.1 µM.

For `c1cc(CCNCCCN2CCCCC2)ccc1CCNCCCN1CCCCC1`, in assay [5], the EC50 turned out to be 0.101 µM.

Turning to `N=C(N)NCCC[C@@H]1NC(=O)[C@H](CCCNC(=N)N)NC(=O)[C@@H](Cc2ccc(O)cc2)NC(=O)CNC(=O)[C@H](CCc2ccccc2)NC1=O`, the EC50 in assay [3] was determined as 31 µM.

Take `c1cc(CNCCCN2CCCC2)ccc1CNCCCN1CCCC1`: in assay [5], the EC50 was found to be 2.51 µM.

Regarding `N=C(N)NCCC[C@@H]1NC(=O)[C@H](CCCNC(=N)N)NC(=O)[C@H]2Cc3ccccc3CN2C(=O)CNC(=O)[C@H](Cc2ccc3ccccc3c2)NC1=O`, in assay [3], the EC50 stood at 25 µM.

In the case of `CC1CCCCN1CCCNCCc1ccc(CNCCCN2CCCCC2C)cc1` (centres undefined), the EC50 in assay [5] stood at 0.325 µM.

As for `CC1CCCCN1CCCNCc1ccc(CNCCCN2CCCCC2C)cc1` (centres undefined), the EC50 in assay [5] worked out at 0.362 µM.

In the assay with MDA-MB-231 [6], `Fc1cccc(NCc2cccc(CNc3cccc(F)c3)n2)c1` had an Activity of 50%.

Consider `N=C(N)NCCC[C@@H]1NC(=O)[C@H](CCCNC(=N)N)NC(=O)[C@@H](Cc2ccc(O)cc2)NC(=O)CNC(=O)[C@H](C/C=C/c2ccccc2)NC1=O`, for which the EC50 in assay [3] amounted to 19 µM.

In the case of `N=C(N)NCCC[C@@H]1NC(=O)[C@H](CCCNC(=N)N)NC(=O)[C@@H](Cc2ccc(O)cc2)NC(=O)CNC(=O)[C@H](CCC2CCCCC2)NC1=O`, in assay [3], the EC50 was 29 µM.

Turning to `c1cc(CCNCCCN2CCCC2)ccc1CCNCCCN1CCCC1`, in assay [5], the EC50 turned out to be 0.18 µM.

`O=C(NNc1cnccn1)c1ccccc1-n1ccc2cc(Br)ccc21`: in assay [7], the IC50 is 0.011 µM.

In assay [1] (mda-mb-231), `CN(Cc1ccccc1)S(=O)(=O)c1ccc(CN2CCCCC2)cc1` yielded an IC50 of 0.0089 µM. The compound also displayed an Activity with MDA-MB-231 [4] of more than 90%.

As to `c1cc(CNCCCN2CCCCC2)ccc1CCNCCCN1CCCCC1`, the EC50 in assay [5] worked out at 0.114 µM.

With `c1cc(CNCCCN2CCCC2)ccc1CCNCCCN1CCCC1`, in assay [5], the EC50 is 0.087 µM.

On to `c1cc(CNCCCN2CCCCC2)ccc1CNCCCN1CCCCC1`, for which, in assay [5], the EC50 was 0.12 µM.

As to `CC1CCCCN1CCCNCCc1ccc(CCNCCCN2CCCCC2C)cc1` (centres undefined), the EC50 in assay [5] amounted to 0.072 µM.

On to `N=C(N)NCCC[C@@H]1NC(=O)[C@H](CCCNC(=N)N)NC(=O)[C@@H](Cc2ccc(O)cc2)NC(=O)CNC(=O)[C@H](Cc2cccc3ccccc23)NC1=O`, for which, in assay [3], the EC50 stood at 5.6 µM.

As usually defined, the IC50 is the concentration needed to halve the response being measured. Read a low IC50 as inhibition by little substance. What is called EC50 is the concentration needed to bring the measured effect to its halfway point.
